# Reference: patent US20090163586A1, “Bis-(Sulfonylamino) Derivatives in Therapy 205” (AstraZeneca AB, priority 2007, published 2009)
# Molecular target: T1, human mPGES-1 (Homo sapiens, UniProt O14684)
# T1 sequence (O14684 1-152): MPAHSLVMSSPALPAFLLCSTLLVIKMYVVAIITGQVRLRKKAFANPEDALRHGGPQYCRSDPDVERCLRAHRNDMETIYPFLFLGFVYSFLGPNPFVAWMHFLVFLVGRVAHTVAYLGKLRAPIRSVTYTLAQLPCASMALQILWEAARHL
# Assay: Microsomal prostaglandin E synthase biochemical assay
# Details: microsome preparation containing human mPGES-1; PGH2 10.8 μM, GSH 2.5 mM, pH 6.8; PGE2 by HTRF; average of at least n=2
# In short: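 Human mPGES-1 microsomes at 2 μg/mL were pre-incubated 15 min with compound (60 μM to 0.002 μM) in 50 mM potassium phosphate pH 6.8 with 2.5 mM GSH. The reaction was started with 10.8 μM PGH2 and stopped after 1 minute with acidic ferric chloride/citrate. PGE2 was quantified by HTRF; IC50 is the mean of at least 2 runs.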
row,Compound,IC50 [nM]
1,"Cc1ccc(NS(=O)(=O)/C=C/c2ccc(Br)cc2)c(S(N)(=O)=O)c1 [Example 98, 2-[[(E)-2-(4-Bromophenyl)ethenyl]sulfonylamino]-5-methyl-benzenesulfonamide]",680
2,"NS(=O)(=O)c1cc(F)ccc1NS(=O)(=O)/C=C/c1ccc2ccccc2c1 [Example 99, 5-Fluoro-2-[[(E)-2-naphthalen-2-ylethenyl]sulfonylamino]benzenesulfonamide]",290
3,"NS(=O)(=O)c1cc(F)ccc1NS(=O)(=O)/C=C/c1ccccc1C(F)(F)F [Example 100, 5-Fluoro-2-[[(E)-2-[2-(trifluoromethyl)phenyl]ethenyl]sulfonylamino]-benzenesulfonamide]",4000
4,"NS(=O)(=O)c1cc(F)ccc1NS(=O)(=O)/C=C/c1ccc(C(F)(F)F)cc1 [Example 101, 5-Fluoro-2-[[(E)-2-[4-(trifluoromethyl)phenyl]ethenyl]sulfonylamino]-benzenesulfonamide]",1600
5,"NS(=O)(=O)c1cc(F)ccc1NS(=O)(=O)/C=C/c1ccc(Br)cc1 [Example 102, 2-[[(E)-2-(4-Bromophenyl)ethenyl]sulfonylamino]-5-fluoro-benzenesulfonamide]",850
6,"NS(=O)(=O)c1ccccc1NS(=O)(=O)/C=C/c1c(F)cccc1F [Example 103, 2-[[(E)-2-(2,6-Difluorophenyl)ethenyl]sulfonylamino]benzenesulfonamide]",9200
7,"NS(=O)(=O)c1ccccc1NS(=O)(=O)/C=C/c1ccccc1C(F)(F)F [Example 104, 2-[[(E)-2-[2-(Trifluoromethyl)phenyl]ethenyl]sulfonylamino]benzenesulfonamide]",4600
8,"NS(=O)(=O)c1ccccc1NS(=O)(=O)/C=C/c1ccc(C(F)(F)F)cc1 [Example 105, 2-[[(E)-2-[4-(Trifluoromethyl)phenyl]ethenyl]sulfonylamino]benzenesulfonamide]",670
9,"NS(=O)(=O)c1ccccc1NS(=O)(=O)/C=C/c1ccc(Br)cc1 [Example 106, 2-[[(E)-2-(4-Bromophenyl)ethenyl]sulfonylamino]benzenesulfonamide]",74
10,"NS(=O)(=O)c1ccccc1NS(=O)(=O)CCc1ccc(Br)cc1 [Example 107, 2-[(E)-2-(4-Bromophenyl)ethylsulfonylamino]benzenesulfonamide]",140
11,"CC(CS(=O)(=O)Nc1ccccc1S(N)(=O)=O)c1ccc(Cl)cc1 (stereo not drawn) [Example 108, 2-[2-(4-Chlorophenyl)propylsulfonylamino]benzenesulfonamide]",4900
12,"COc1ccccc1CCS(=O)(=O)Nc1ccccc1S(N)(=O)=O [Example 109, 2-[2-(2-Methoxyphenyl)ethylsulfonylamino]benzenesulfonamide]",6100
13,"NS(=O)(=O)c1ccccc1NS(=O)(=O)CCc1ccc2ccccc2c1 [Example 110, 2-(2-Naphthalen-2-ylethylsulfonylamino)benzenesulfonamide]",490
14,"NS(=O)(=O)c1ccc(F)cc1NS(=O)(=O)CCc1ccc2ccccc2c1 [Example 111, 4-Fluoro-2-(2-naphthalen-2-ylethylsulfonylamino)benzenesulfonamide]",760
15,"NS(=O)(=O)c1ccccc1NS(=O)(=O)Cc1ccc(Cl)cc1 [Example 112, 2-[(4-Chlorophenyl)methylsulfonylamino]benzenesulfonamide]",6100
16,"NS(=O)(=O)c1ccccc1NS(=O)(=O)c1cccc(-c2cccc(Cl)c2Cl)c1 [Example 113, 2-[[3-(2,3-Dichlorophenyl)phenyl]sulfonylamino]benzenesulfonamide]",480
17,"NS(=O)(=O)c1ccccc1NS(=O)(=O)c1cccc(-c2cc(F)cc(F)c2)c1 [Example 114, 2-[[3-(3,5-difluorophenyl)phenyl]sulfonylamino]benzenesulfonamide]",830

row,Compound,IC50 [nM]
1,"COc1ccc(Cl)cc1-c1cccc(S(=O)(=O)Nc2ccccc2S(N)(=O)=O)c1 [Example 115, 3-(5-Chloro-2-methoxy-phenyl)-N-(2-sulfamoylphenyl)benzenesulfonamide]",2600
2,"N#Cc1cccc(-c2cccc(S(=O)(=O)Nc3ccccc3S(N)(=O)=O)c2)c1 [Example 116, 2-[[3-(3-Cyanophenyl)phenyl]sulfonylamino]benzenesulfonamide]",1700
3,"N#Cc1ccc(-c2cccc(S(=O)(=O)Nc3ccccc3S(N)(=O)=O)c2)cc1 [Example 117, 2-[[3-(4-Cyanophenyl)phenyl]sulfonylamino]benzenesulfonamide]",1300
4,"COc1ncc(-c2cccc(S(=O)(=O)Nc3ccccc3S(N)(=O)=O)c2)c(OC)n1 [Example 118, 3-(2,4-Dimethoxypyrimidin-5-yl)-N-(2-sulfamoylphenyl)benzenesulfonamide]",4700
5,"NS(=O)(=O)c1ccccc1NS(=O)(=O)c1cccc(-c2ccoc2)c1 [Example 119, 2-[[3-(3-Furyl)phenyl]sulfonylamino]benzenesulfonamide]",4500
6,"NS(=O)(=O)c1ccccc1NS(=O)(=O)c1cccc(-c2ccc3[nH]ccc3c2)c1 [Example 120, 2-[[3-(1H-Indol-5-yl)phenyl]sulfonylamino]benzenesulfonamide]",3300
7,"NS(=O)(=O)c1ccccc1NS(=O)(=O)c1cccc(-c2cccc(OC(F)(F)F)c2)c1 [Example 121, 2-[[3-[3-(Trifluoromethoxy)phenyl]phenyl]sulfonylamino]benzenesulfonamide]",220
8,"NS(=O)(=O)c1ccccc1NS(=O)(=O)c1ccc2c(c1)CCC2 [Example 122, N-(2-Sulfamoylphenyl)-2,3-dihydro-1H-indene-5-sulfonamide]",6700
9,"CN1CCOc2cc(S(=O)(=O)Nc3ccccc3S(N)(=O)=O)ccc21 [Example 123, 7-Methyl-N-(2-sulfamoylphenyl)-10-oxa-7-azabicyclo[4.4.0]deca-1,3,5-triene-3-sulfonamide]",9300
10,"NS(=O)(=O)c1ccccc1NS(=O)(=O)c1ccccc1-c1ccc(Cl)c(Cl)c1 [Example 124, 2-(3,4-Dichlorophenyl)-N-(2-sulfamoylphenyl)benzenesulfonamide]",1300
11,"NS(=O)(=O)c1ccccc1NS(=O)(=O)c1ccc(Oc2ncc(C(F)(F)F)cc2Cl)cc1 [Example 125, 2-[[4-[3-Chloro-5-(trifluoromethyl)pyridin-2-yl]oxyphenyl]sulfonylamino]benzenesulfonamide]",7200
12,NS(=O)(=O)c1ccccc1NS(=O)(=O)c1ccc2c(c1)CCCC2 [Example 126],1200
13,"NS(=O)(=O)c1ccccc1NS(=O)(=O)c1ccc(OCc2ccccc2)cc1 [Example 127, 4-Phenylmethoxy-N-(2-sulfamoylphenyl)benzenesulfonamide]",5100
14,"NS(=O)(=O)c1ccccc1NS(=O)(=O)c1ccc(C2CCCCC2)cc1 [Example 128, 2-[(4-Cyclohexylphenyl)sulfonylamino]benzenesulfonamide]",1700
15,"NS(=O)(=O)c1ccccc1NS(=O)(=O)c1cccc(-c2ccccc2)c1 [Example 129, 3-Phenyl-N-(2-sulfamoylphenyl)benzenesulfonamide]",2500
16,"Cn1nc(-c2ccc(S(=O)(=O)Nc3ccccc3S(N)(=O)=O)s2)cc1C(F)(F)F [Example 130, 5-(1-Methyl-5-trifluoromethyl-1H-pyrazol-3-yl)-thiophene-2-sulfonic acid (2-sulfamoyl-phenyl)-amide]",5200
